“And” between values parts separate entries of the source, which are not always exact repeats. Equal values may be shown once.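 Dose response: 5 concentrations. Exposure: 48 h. Format: 96-well plates. Endpoint: linear interpolation; highest concentration if not reached. Here, GI50 denotes the concentration required for 50% inhibition of growth. At the TGI there is no net growth.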
Experiments:
Experiment in all cases: NCI tumour cell line growth inhibition, 48 h
[1] = test system: OVCAR-4 ovarian
[2] = test system: A549 NSCLC
[3] = test system: SF-539 CNS
[4] = test system: SK-OV-3 ovarian
[5] = test system: IGROV1 ovarian
[6] = test system: LOX IMVI melanoma
[7] = test system: UACC-62 melanoma
[8] = test system: OVCAR-3 ovarian
[9] = test system: NCI-H23 lung
[10] = test system: NCI-H226 lung
[11] = test system: HL-60(TB) leukemia
[12] = test system: UO-31 renal
[13] = test system: BT-549 breast
[14] = test system: HOP-62 NSCLC
[15] = test system: T-47D breast
[16] = test system: SN12C renal
[17] = test system: COLO 205 colon
[18] = test system: NCI-H460 lung
[19] = test system: CCRF-CEM leukemia
[20] = test system: RXF 393 renal
[21] = test system: HT29 colon
[22] = test system: U251 CNS
[23] = test system: SNB-75 CNS
[24] = test system: A498 renal
[25] = test system: K-562 leukemia
[26] = test system: 786-0 renal
[27] = test system: TK-10 renal
[28] = test system: KM12 colon
[29] = test system: HCT-15 colon
[30] = test system: MOLT-4 leukemia
[31] = test system: DU-145 prostate
[32] = test system: MDA-MB-231 breast
[33] = test system: MCF7 breast
[34] = test system: HOP-92 NSCLC
[35] = test system: OVCAR-5 ovarian
[36] = test system: M14 melanoma
[37] = test system: PC-3 prostate
[38] = test system: NCI/ADR-RES ovarian
[39] = test system: SK-MEL-28 melanoma
[40] = test system: SNB-19 CNS
[41] = test system: SW-620 colon
[42] = test system: NCI-H522 lung
[43] = test system: SF-268 CNS
[44] = test system: HCT-116 colon
[45] = test system: MDA-MB-435
[46] = test system: SF-295 CNS
[47] = test system: SR leukemia
[48] = test system: EKVX NSCLC
[49] = test system: SK-MEL-5 melanoma
[50] = test system: RPMI-8226 leukemia
[51] = test system: UACC-257 melanoma
[52] = test system: SK-MEL-2 melanoma
[53] = test system: ACHN renal
[54] = test system: HCC-2998 colon
[55] = test system: OVCAR-8 ovarian
[56] = test system: CAKI-1 renal
[57] = test system: MALME-3M melanoma
[58] = test system: HS 578T breast

## NS(=O)(=O)c1ccc(N=Cc2c(O)[nH]c3ccc4ncsc4c23)cc1
[1]
  GI50: 821 nM and 1870 nM
  TGI: 2920 nM and 16100 nM
[2]
  GI50: 5020 nM and 9110 nM
  TGI: > 25000 nM
[3]
  GI50: 626 nM and 1080 nM
  TGI: 2000 nM and 4910 nM
[4]
  GI50: 3840 nM and 9750 nM
  TGI: > 25000 nM
[5]
  GI50: 6530 nM and 8830 nM
  TGI: > 25000 nM
[6]
  GI50: 850 nM and 2130 nM
  TGI: > 25000 nM
[7]
  GI50: 1050 nM and 3670 nM
  TGI: 4710 nM and 9090 nM
[8]
  GI50: 189 nM and 756 nM
  TGI: > 6360 nM and 3420 nM
[9]
  GI50: 1110 nM and 3980 nM
  TGI: 7240 nM and 15700 nM
[10]
  GI50: 931 nM and 2940 nM
  TGI: 6260 nM and 15500 nM
[11]
  GI50: 1570 nM and 1930 nM
  TGI: 4100 nM and 4790 nM
[12]
  GI50: 4510 nM and 6200 nM
  TGI: > 21300 nM
[13]
  GI50: 693 nM and 2340 nM
  TGI: 2060 nM and 9040 nM
[14]
  GI50: 887 nM and 3490 nM
  TGI: 4170 nM and 15100 nM
[15]
  GI50: 781 nM and 2360 nM
  TGI: 2160 nM and > 20000 nM
[16]
  GI50: 982 nM and 3210 nM
  TGI: > 25000 nM
[17]
  GI50: 1360 nM and 3840 nM
  TGI: 5030 nM and 9190 nM
[18]
  GI50: 764 nM and 5920 nM
  TGI: > 25000 nM
[19]
  GI50: 793 nM and 699 nM
  TGI: > 25000 nM
[20]
  GI50: 856 nM and 2120 nM
  TGI: 2470 nM and 7850 nM
[21]
  GI50: 3500 nM and 8160 nM
  TGI: > 25000 nM
[22]
  GI50: 715 nM and 1630 nM
  TGI: > 8070 nM
[23]
  GI50: 857 nM and 3640 nM
  TGI: 2610 nM and 10000 nM
[24]
  GI50: 3690 nM and 6710 nM
  TGI: 9950 nM and 14700 nM
[25]
  GI50: 1270 nM and 2190 nM
  TGI: > 25000 nM
[26]
  GI50: 1020 nM and 3670 nM
  TGI: > 25000 nM and 18800 nM
[27]
  GI50: 4200 nM and 7650 nM
  TGI: 17100 nM and 19100 nM
[28]
  GI50: 566 nM and 1970 nM
  TGI: 8580 nM and 18400 nM
[29]
  GI50: 7160 nM and 7130 nM
  TGI: > 25000 nM and 24500 nM
[30]
  GI50: 476 nM and 886 nM
  TGI: 1570 nM and 4260 nM
[31]
  GI50: 394 nM and 3030 nM
  TGI: > 25000 nM
[32]
  GI50: 1060 nM and 5660 nM
  TGI: > 25000 nM
[33]
  GI50: 755 nM and 1770 nM
  TGI: > 24000 nM
[34]
  GI50: 1720 nM
  TGI: > 7330 nM
[35]
  GI50: 2910 nM and 7560 nM
  TGI: > 25000 nM
[36]
  GI50: 2080 nM and 4140 nM
  TGI: 6990 nM and 9390 nM
[37]
  GI50: 3100 nM and 2080 nM
  TGI: > 22900 nM
[38]
  GI50: 3500 nM and 5420 nM
  TGI: > 25000 nM
[39]
  GI50: 858 nM and 2490 nM
  TGI: 2550 nM and 10900 nM
[40]
  GI50: 885 nM and 2160 nM
  TGI: > 25000 nM
[41]
  GI50: 891 nM and 1800 nM
  TGI: > 21900 nM
[42]
  GI50: 508 nM and 532 nM
  TGI: 1580 nM and 1880 nM
[43]
  GI50: 678 nM and 792 nM
  TGI: 2280 nM and 2720 nM
[44]
  GI50: 845 nM and 1780 nM
  TGI: > 25000 nM
[45]
  GI50: 2440 nM and 3760 nM
  TGI: > 19500 nM and 18400 nM
[46]
  GI50: 4020 nM and 7280 nM
  TGI: > 23200 nM
[47]
  GI50: 213 nM and 518 nM
  TGI: > 5710 nM and 2110 nM
[48]
  GI50: 7910 nM and 8520 nM
  TGI: > 25000 nM
[49]
  GI50: 1040 nM and 2740 nM
  TGI: > 10500 nM and 15300 nM
[50]
  GI50: 5600 nM and 7170 nM
  TGI: > 21200 nM
[51]
  GI50: 3110 nM and 6090 nM
  TGI: 19000 nM and 16600 nM
[52]
  GI50: 644 nM and 1150 nM
  TGI: 1360 nM and 3070 nM
[53]
  GI50: 2200 nM and 5310 nM
  TGI: > 25000 nM
[54]
  GI50: 751 nM and 1410 nM
  TGI: 3870 nM and 7050 nM
[55]
  GI50: 750 nM and 1730 nM
  TGI: > 25000 nM
[56]
  GI50: 5850 nM and 6520 nM
  TGI: > 25000 nM
[57]
  GI50: 1440 nM and 2270 nM
  TGI: 10700 nM and > 19000 nM
[58]
  GI50: 783 nM and 1040 nM
  TGI: > 7170 nM

## CCCSc1ccc2nc(NC(=O)OC)[nH]c2c1
[1]
  GI50: 792 nM
  TGI: > 100000 nM
[2]
  GI50: 438 nM
  TGI: > 100000 nM
[3]
  GI50: 323 nM
  TGI: > 24400 nM
[4]
  GI50: 285 nM
  TGI: 2910 nM
[5]
  GI50: 1370 nM
  TGI: > 100000 nM
[6]
  GI50: 718 nM
  TGI: > 100000 nM
[7]
  GI50: 626 nM
  TGI: > 100000 nM
[8]
  GI50: 196 nM
  TGI: 509 nM
[9]
  GI50: 585 nM
  TGI: > 100000 nM
[10]
  GI50: 456 nM
  TGI: 5970 nM
[11]
  GI50: 228 nM
  TGI: 791 nM
[12]
  GI50: 890 nM
  TGI: > 100000 nM
[13]
  GI50: 1500 nM
  TGI: > 100000 nM
[14]
  GI50: 380 nM
  TGI: > 68700 nM
[15]
  GI50: 298 nM
  TGI: > 100000 nM
[16]
  GI50: 823 nM
  TGI: > 100000 nM
[17]
  GI50: 241 nM
  TGI: 702 nM
[18]
  GI50: 342 nM
  TGI: > 100000 nM
[19]
  GI50: 276 nM
  TGI: > 100000 nM
[20]
  GI50: 208 nM
  TGI: 598 nM
[21]
  GI50: 235 nM
[22]
  GI50: 411 nM
  TGI: > 100000 nM
[23]
  GI50: 143 nM
[24]
  GI50: 258 nM
  TGI: 5030 nM
[25]
  GI50: 76.2 nM
  TGI: > 100000 nM
[26]
  GI50: 634 nM
  TGI: > 100000 nM
[27]
  GI50: > 100000 nM
  TGI: > 100000 nM
[28]
  GI50: 206 nM
  TGI: > 100000 nM
[29]
  GI50: 366 nM
  TGI: > 100000 nM
[30]
  GI50: 547 nM
  TGI: > 100000 nM
[31]
  GI50: 336 nM
  TGI: > 71500 nM
[32]
  GI50: 1060 nM
  TGI: > 100000 nM
[33]
  GI50: 380 nM
  TGI: > 100000 nM
[34]
  GI50: 712 nM
  TGI: > 100000 nM
[35]
  GI50: 2080 nM
  TGI: > 100000 nM
[36]
  GI50: 260 nM
[37]
  GI50: 354 nM
  TGI: > 100000 nM
[38]
  GI50: 227 nM
[39]
  GI50: 952 nM
  TGI: > 100000 nM
[40]
  GI50: 525 nM
  TGI: > 100000 nM
[41]
  GI50: 223 nM
  TGI: > 100000 nM
[42]
  GI50: 202 nM
  TGI: 666 nM
[43]
  GI50: 1340 nM
  TGI: > 100000 nM
[44]
  GI50: 416 nM
  TGI: > 100000 nM
[45]
  GI50: 34.8 nM
  TGI: 202 nM
[46]
  GI50: 290 nM
  TGI: > 32800 nM
[47]
  GI50: 48.2 nM
[48]
  GI50: > 37000 nM
  TGI: > 100000 nM
[49]
  GI50: 290 nM
  TGI: > 100000 nM
[50]
  GI50: 378 nM
  TGI: > 100000 nM
[51]
  TGI: > 100000 nM
[52]
  GI50: 538 nM
  TGI: > 100000 nM
[53]
  GI50: 2640 nM
  TGI: > 100000 nM
[54]
  GI50: 1010 nM
  TGI: > 33800 nM
[55]
  GI50: 486 nM
  TGI: > 100000 nM
[56]
  TGI: > 100000 nM
[57]
  GI50: 425 nM
  TGI: > 100000 nM
[58]
  GI50: 378 nM
  TGI: > 100000 nM
